Drawing on patent publication US20160075653A1, “NEMATICIDAL N-(PHENYLCYCLOALKYL)CARBOXAMIDES AND N-(PHENYLCYCLOALKYL)THIOCARBOXAMIDES” (BAYER CROPSCIENCE AKTIENGESELLSCHAFT, priority 2013, published 2016), this text covers logP for 72 compounds.

The nature of the series: Measurement of log P values by HPLC on reversed phase columns (methods [a] pH 2.3, [b] pH 2.7, [c] pH 7.8). In kind it is physicochemical. The essentials:
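Retention times were converted to log P by linear interpolation between linear alkan-2-one standards (3 to 16 carbons) of known log P. Eluents, each with 10% to 95% acetonitrile gradient: phosphoric acid 0.1% at pH 2.3 [a]; formic acid 0.1% at pH 2.7, LC-MS [b]; ammonium hydrogen carbonate 0.001 molar at pH 7.8, LC-MS [c].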

Setting [1] is: HPLC on reversed phase columns, method [b], pH 2.7.
The mark [2] stands for this setting: method [b], HPLC reversed phase, pH 2.7.
Setting [3] is: method [c], HPLC reversed phase, pH 7.8.

Regarding `O=C(NC1CC1c1ccccc1)c1ccccc1C(F)(F)F` (stereo not shown) [Example 40], under setting [1], the logP is 2.79^[b].

For `O=C(NC1CC1c1ccccc1Cl)c1ccccc1Br` (stereo not shown) [Example 48], under setting [1], the logP is 3.19^[b].

As to `N#Cc1ccccc1C(=O)NC1CCCC1c1ccc(F)c(F)c1` (stereo not shown) [Example 137], the logP under setting [2] was 2.96^[b].

With `Cn1cc(C(=O)N(C2CC2)C2CCCCC2c2ccccc2)c(C(F)F)n1` (stereo not shown) [Example 138], the logP under setting [2] is 3.60^[b].

As to `Cc1nn(C)c(F)c1C(=O)N(C1CC1)C1CCCCC1c1ccccc1` (stereo not shown) [Example 139], the logP under setting [2] was 3.53^[b].

As for `Cn1cc(C(=O)N(C2CC2)C2CCCCC2c2ccccc2)c(C(F)(F)F)c1` (stereo not shown) [Example 140], the logP under setting [2] was 3.90^[b].

`Cc1nc(C(F)F)c(C(=O)N(C2CC2)C2CCCCC2c2ccccc2)s1` (stereo not shown) [Example 141]: under setting [2], the logP is 4.18^[b].

For `Cn1cc(C(=O)N(C2CC2)C2CCCCC2c2ccccc2)c(C(F)(F)F)n1` (stereo not shown) [Example 142], the logP under setting [2] was 3.96^[b].

Turning to `Cn1cc(C(=O)N(C2CC2)C2CCCCC2c2ccccc2)c(C(F)F)n1` (stereo not shown) [Example 143], under setting [2], the logP was 3.55^[b].

Turning to `CCc1nn(C)c(F)c1C(=O)N(C1CC1)C1CCCCC1c1ccccc1` (stereo not shown) [Example 144], under setting [2], the logP is 3.83^[b].

For the compound `Cn1cc(C(=O)N(C2CC2)C2CCCCC2c2ccccc2)c(I)n1` (stereo not shown) [Example 145], the logP under setting [2] was 3.60^[b].

Consider `Cc1nn(C)c(C)c1C(=O)N(C1CC1)C1CCCCC1c1ccccc1` (stereo not shown) [Example 146], for which the logP under setting [2] was 3.13^[b].

With `Cc1nc(C(F)(F)F)c(C(=O)N(C2CC2)C2CCCCC2c2ccccc2)s1` (stereo not shown) [Example 147], the logP under setting [2] was 4.69^[b].

`FC(F)(F)c1ccccc1C(=S)NC1CC1c1ccccc1` (stereo not shown) [Example 148]: under setting [2], the logP is 3.69^[b].

For `Fc1ccc(C2CCCC2NC(=S)c2sccc2C(F)(F)F)cc1F` (stereo not shown) [Example 149], the logP under setting [2] is 4.59^[b].

As for `Fc1ccc(C2CCCC2NC(=S)C2=C(C(F)(F)F)OCCS2)cc1F` (stereo not shown) [Example 150], the logP under setting [2] was 4.21^[b].

Take `Cn1cc(C(=O)NC2CC2c2ccc(Cl)cc2)c(C(F)F)n1` (stereo not shown) [Example 151]: under setting [2], the logP is 2.30^[b].

As for `Cc1nn(C)c(F)c1C(=O)N(C1CC1)C1CCCCC1c1ccccc1Cl` (stereo not shown) [Example 154], the logP under setting [2] was 3.94^[b].

For the compound `Cn1cc(C(=O)N(C2CC2)C2CCCC2c2ccc(Cl)cc2Cl)c(C(F)F)n1` (stereo not shown) [Example 155], the logP under setting [2] was 4.23^[b].

Take `Cn1cc(C(=O)N(C2CC2)C2CCCC2c2ccccc2Cl)c(C(F)F)n1` (stereo not shown) [Example 156]: the logP under setting [2] was 3.85^[b].

Consider `Cn1cc(C(=O)N(C2CC2)C2CCCCC2c2ccc(Cl)cc2Cl)c(C(F)F)n1` (stereo not shown) [Example 157], for which the logP under setting [2] is 4.59^[b].

For the compound `Cn1cc(C(=O)N(C2CC2)C2CCCCC2c2ccccc2Cl)c(C(F)F)n1` (stereo not shown) [Example 158], the logP under setting [2] was 4.03^[b].

Take `Cc1nn(C)c(F)c1C(=O)N(C1CC1)C1CCCC1c1ccc(Cl)cc1Cl` (stereo not shown) [Example 159]: under setting [2], the logP is 4.18^[b].

As to `CCc1nn(C)c(F)c1C(=O)N(C1CC1)C1CCCC1c1ccc(Cl)cc1Cl` (stereo not shown) [Example 160], the logP under setting [2] is 4.65^[b].

Turning to `CCc1nn(C)c(F)c1C(=O)N(C1CC1)C1CCCCC1c1ccc(Cl)cc1Cl` (stereo not shown) [Example 161], the logP under setting [2] is 5.08^[b].

Take `CCc1nn(C)c(F)c1C(=O)N(C1CC1)C1CCCCC1c1ccccc1Cl` (stereo not shown) [Example 162]: the logP under setting [2] is 4.39^[b].

Regarding `Cc1cc(C(=O)N(C2CC2)C2CCCCC2c2ccc(Cl)cc2Cl)c(C)o1` (stereo not shown) [Example 163], under setting [2], the logP was 5.85^[b].

For the compound `Cc1nn(C)c(F)c1C(=O)N(C1CC1)C1CCCC1c1ccccc1Cl` (stereo not shown) [Example 164], under setting [2], the logP was 3.71^[b].

For the compound `Cc1nn(C)c(F)c1C(=O)N(C1CC1)C1CCCCC1c1ccc(Cl)cc1Cl` (stereo not shown) [Example 165], the logP under setting [2] is 4.59^[b].

Take `Cn1nc(C(F)F)c(C(=O)N(C2CC2)C2CCCC2c2ccc(Cl)cc2Cl)c1F` (stereo not shown) [Example 166]: the logP under setting [2] was 4.67^[b].

With `Cn1nc(C(F)F)c(C(=O)N(C2CC2)C2CCCC2c2ccccc2Cl)c1F` (stereo not shown) [Example 167], the logP under setting [2] was 4.31^[b].

For `Cn1nc(C(F)F)c(C(=O)N(C2CC2)C2CCCCC2c2ccc(Cl)cc2Cl)c1F` (stereo not shown) [Example 168], the logP under setting [2] is 5.05^[b].

`Cn1nc(C(F)F)c(C(=O)N(C2CC2)C2CCCCC2c2ccccc2Cl)c1F` (stereo not shown) [Example 169]: the logP under setting [2] is 4.49^[b].

As to `Cc1nc(C(F)F)c(C(=O)N(C2CC2)C2CCCCC2c2ccc(Cl)cc2Cl)s1` (stereo not shown) [Example 170], the logP under setting [2] was 5.25^[b].

Take `Cc1nc(C(F)F)c(C(=O)N(C2CC2)C2CCCCC2c2ccccc2Cl)s1` (stereo not shown) [Example 171]: the logP under setting [2] was 4.67^[b].

With `CCc1nn(C)c(F)c1C(=O)N(C1CC1)C1CCCC1c1ccccc1Cl` (stereo not shown) [Example 172], the logP under setting [2] was 4.21^[b].

In the case of `Cc1nc(C(F)F)c(C(=O)N(C2CC2)C2CCCC2c2ccc(Cl)cc2Cl)s1` (stereo not shown) [Example 173], under setting [2], the logP was 4.85^[b].

Turning to `Cc1nc(C(F)F)c(C(=O)N(C2CC2)C2CCCC2c2ccccc2Cl)s1` (stereo not shown) [Example 174], under setting [2], the logP was 4.51^[b].

With `Cc1cc(C(=O)N(C2CC2)C2CCCC2c2ccc(Cl)cc2Cl)c(C)o1` (stereo not shown) [Example 175], the logP under setting [2] is 5.39^[b].

Turning to `Cc1cc(C(=O)N(C2CC2)C2CCCC2c2ccccc2Cl)c(C)o1` (stereo not shown) [Example 176], the logP under setting [2] is 4.95^[b].

As for `Cc1cc(C(=O)N(C2CC2)C2CCCCC2c2ccccc2Cl)c(C)o1` (stereo not shown) [Example 177], the logP under setting [2] is 5.17^[b].

Take `Cn1nc(C(F)(F)F)c(C(=O)NC2CC2c2ccccc2)c1F` (stereo not shown) [Example 178]: the logP under setting [2] is 2.63^[b].

`Cn1nc(C(F)F)c(C(=O)NC2CC2c2ccc(Cl)cc2)c1F` (stereo not shown) [Example 179]: the logP under setting [2] was 2.61^[b].

As for `Cn1nc(C(F)F)c(C(=O)N(C2CC2)C2CCCCC2(C)c2ccccc2)c1F` (stereo not shown) [Example 180], the logP under setting [2] was 4.18^[b].

As to `Cn1nc(C(F)F)c(C(=O)NC2CCCCC2c2ccccc2)c1F` (stereo not shown) [Example 181], under setting [2], the logP was 3.13^[b].

For the compound `Cn1nc(C(F)F)c(C(=O)NC2CCCCC2c2ccccc2)c1F` (stereo not shown) [Example 182], the logP under setting [2] is 3.29^[b].

Take `Cn1nc(C(F)F)c(C(=O)NC2CCCCC2c2ccccc2)c1Cl` (stereo not shown) [Example 183]: the logP under setting [2] was 3.51^[b].

In the case of `Cn1nc(C(F)F)c(C(=O)NC2CCCCC2c2ccccc2)c1Cl` (stereo not shown) [Example 184], the logP under setting [2] was 3.33^[b].

As for `Cn1cc(C(=O)NC2CCCCC2c2ccccc2)c(C(F)F)n1` (stereo not shown) [Example 185], the logP under setting [2] is 2.76^[b].

With `Cn1cc(C(=O)NC2CCCCC2c2ccccc2)c(C(F)F)n1` (stereo not shown) [Example 186], the logP under setting [2] is 3.00^[b].

`Cn1nc(C(F)F)c(C(=O)NC2CC2c2cccc(F)c2)c1F` (stereo not shown) [Example 187]: the logP under setting [2] is 2.59^[b].

As for `Cn1nc(C(F)F)c(C(=O)NC2CC2c2ccc(F)cc2)c1F` (stereo not shown) [Example 188], the logP under setting [2] was 2.59^[b].

Consider `Cn1nc(C(F)F)c(C(=O)NC2CC2c2ccccc2C(F)(F)F)c1F` (stereo not shown) [Example 189], for which, under setting [2], the logP was 3.00^[b].

In the case of `Cn1nc(C(F)F)c(C(=S)N(C2CC2)C2CCCCC2(C)c2ccccc2)c1F` (stereo not shown) [Example 190], under setting [2], the logP was 5.01^[b].

In the case of `Cn1nc(C(F)F)c(C(=O)NC2CC2c2cccc(F)c2)c1Cl` (stereo not shown) [Example 191], the logP under setting [2] was 2.75^[b].

Consider `Cn1nc(C(F)F)c(C(=O)NC2CC2c2ccc(F)cc2)c1Cl` (stereo not shown) [Example 192], for which the logP under setting [2] was 2.75^[b].

Take `Cn1nc(C(F)F)c(C(=O)NC2CC2c2ccccc2C(F)(F)F)c1Cl` (stereo not shown) [Example 193]: under setting [2], the logP was 3.15^[b].

As for `CN(C(=O)c1c(C(F)F)nn(C)c1F)C1CCCCC1c1ccccc1` (stereo not shown) [Example 196], the logP under setting [2] is 3.27^[b].

For `CN(C(=O)c1c(C(F)F)nn(C)c1Cl)C1CCCCC1c1ccccc1` (stereo not shown) [Example 197], the logP under setting [2] was 3.63^[b].

For `O=C(NC1CC1c1ccc(Cl)cc1)c1ccccc1Cl` (stereo not shown) [Example 198], the logP was 3.09^[b] under setting [2] and 3.02^[c]; under setting [3].

In the case of `O=C(NC1CC1c1ccc(Cl)cc1)c1ccccc1I` (stereo not shown) [Example 199], the logP is, setting by setting: under setting [2], 3.24^[b]; under setting [3], 3.19^[c];.

Regarding `O=C(NC1CC1c1ccc(Cl)cc1)c1c(F)cccc1F` (stereo not shown) [Example 200], the logP was 2.94^[b] under setting [2] and 2.89^[c]; under setting [3].

For the compound `O=C(NC1CC1c1ccc(Cl)cc1)c1ccccc1C(F)(F)F` (stereo not shown) [Example 201], the logP is 3.27^[b] under setting [2] and 3.21^[c]; under setting [3].

As to `O=C(NC1CC1c1ccc(Cl)cc1)c1sccc1I` (stereo not shown) [Example 202], the logP is 3.56^[b] under setting [2] and 3.50^[c]; under setting [3].

As to `O=C(NC1CC1c1ccc(Cl)cc1)c1occc1Br` (stereo not shown) [Example 204], the logP is 3.04^[b] under setting [2] and 2.98^[c]; under setting [3].

Turning to `O=C(NC1CC1c1ccc(Cl)cc1Cl)c1ccccc1F` (stereo not shown) [Example 205], the logP was 3.66^[b] under setting [2] and 3.55^[c]; under setting [3].

In the case of `O=C(NC1CC1c1ccc(Cl)cc1Cl)c1ccccc1Cl` (stereo not shown) [Example 206], the logP is 3.57^[b] under setting [2] and 3.47^[c]; under setting [3].

For the compound `O=C(NC1CC1c1ccc(Cl)cc1Cl)c1ccccc1Br` (stereo not shown) [Example 207], the logP is, setting by setting: under setting [2], 3.58^[b]; under setting [3], 3.52^[c];.

For the compound `O=C(NC1CC1c1ccc(Cl)cc1Cl)c1ccccc1I` (stereo not shown) [Example 208], the logP runs as follows: under setting [2], 3.74^[b]; under setting [3], 3.64^[c];.

Regarding `O=C(NC1CC1c1ccc(Cl)cc1Cl)c1c(F)cccc1F` (stereo not shown) [Example 209], the logP is 3.36^[b] under setting [2] and 3.29^[c]; under setting [3].

Turning to `O=C(NC1CC1c1ccc(Cl)cc1Cl)c1ccccc1C(F)(F)F` (stereo not shown) [Example 210], the logP reads like this: under setting [2], 3.73^[b]; under setting [3], 3.62^[c];.

Take `O=C(NC1CC1c1ccc(Cl)cc1Cl)c1cccnc1Cl` (stereo not shown) [Example 211]: the logP is, setting by setting: under setting [2], 2.82^[b]; under setting [3], 2.77^[c];.
